The subject of one data set is MCF7 cells. Put plainly: Nuclear morphology (Hoechst 33258) in MCF7 cells. Format: cell-based, human. The conditions noted are these: serum stimulated 24 hours after lipofection. The procedure: Evaluation of Nuclear Morphology: Cells were seeded in 6-well culture dishes and treated with ODNs as described. The cells were then immersed in methanol for at least 10 min. Cells were stained in 1 μg/ml Hoechst 33258 in water with 1% nonfat dry milk. After staining for 8-10 min, the cells were rinsed in water and dried completely. Nuclear morphology was visually evaluated by fluorescence microscopy.
Apoptosis is the end result of an elaborate cascade of molecular events that ultimately result in programmed cell death; thus, a variety of tests are generally used to determine whether apoptosis is occurring. The methods to study apoptosis were employed: (a) assessment of nuclear morphology; (b) PARP cleavage; and (c) caspase-3 cleavage. Serum-starved cells were transfected with antisense p21 ODN or the control ODN, fixed, stained with Hoechst 33258, and examined under UV light. MCF7 and T47D cells were grown to confluence, serum starved for 24 hours, and lipofected with antisense p21 or control ODN. The cells were subsequently serum stimulated for another 24 hours, fixed, stained with Hoechst 33258, and examined under UV light at X400.

The subject of another data set is MAPK. The data set can be described thus: MAPK level (immunoblot) in ODN-transfected breast cancer cells. The conditions noted are these: ODN-transfected cells compared with controls. Format: cell-based, human. The procedure: Due to the high levels of p21 in these two human breast cancer cell lines, it was reasoned that, in a manner similar to their effect in VSM cells (Weiss, R. H., Joo, A., and Randour, C., J. Biol. Chem., 275: 10285-10290, 2000), antisense ODNs to p21 may result in increased apoptosis and/or cell cycle arrest. […] T47D and MCF7 cells were lipofected with either antisense p21 ODN (200 or 400 nM), the control ODN at the same concentrations, or lipofectin alone (no DNA). MCF7 and T47D cells were grown to confluence, serum starved for 24 hours, and lipofected with antisense p21 or control ODN or lipofectin only. cont refers to nontransfected cells. The cells were subsequently serum stimulated for another 24 hours. A and B, the cells were lysed, and equal protein quantities (20 μg) were electrophoresed and immunoblotted with p21 antibody. The same lysate was immunoblotted with MAPK antibody as a loading control. Density of p21 and MAPK bands was determined and reported as a ratio. C, the cells were transfected as described in A, fixed, subjected to immunohistochemistry with p21 antibody as described in “Immunohistochemistry” in Example VI, and examined under visible light at X400. Control cells (FIG. 30, cont) were not transfected. […] There was no effect of lipofectin alone when compared with no transfection (control).
A general note: A western blot detects proteins with antibodies after separation by electrophoresis.

The subject of another data set is α-actin. Put plainly: alpha-actin protein level by Western blot in A10 VSM cells. Format: cell-based, rat. The procedure: (§1) Western blots: Cells were grown to confluence in 6 cm culture dishes and serum deprived. After transfection and or treatment with appropriate agonist, the cells were washed with phosphate-buffered saline and lysed in lysis buffer and the supernatant was Western blotted as described (Weiss et al., 1998 Am. J. Physiol., 274, p. C1521-C1529).
At the times indicated after the overnight incubation (in hours), the medium was changed to quiescence medium and the cells were stimulated with PMA for 4 hours to show maximal p21^Waf1/Cip1 expression (FIG. 6a). The lysates were immunoblotted with (a) p21^Waf1/Cip1 or p27^Kip1 antibody or (b) α-actin antibody. This is likely due to sequence similarity between the two genes, as p21^Waf1/Cip1 shares 43% sequence identity with p27^Kip1 in the cdk/cyclin binding site (residues 27-88), located in the conserved N terminus (Nomura et al., 1997 Gene, 191, p. 211-218; Toyoshima and Hunter, 1994 Cell, 78, p. 67-74).
Using a random sequence phosphorothioate oligodeoxynucleotide (SEQ. ID NO.:3) as a control, the effect of the antisense oligodeoxynucleotide to p21 (400 nM) on p21 and α-actin protein expression in A10 VSM cells, was examined. The lysates, normalized for protein content, were Western blotted with either p21 or α-actin antibody.

The test system of another data set is A10 VSM cells. The data set can be described thus: [3H]thymidine incorporation (DNA synthesis) in A10 VSM cells. Format: cell-based, rat.
Another data set has as its system p27^Kip1. The data set can be described thus: p27Kip1 protein level by Western blot in A10 VSM cells. Format: cell-based, rat. The following applies: PMA for 4 hours. The protocol:
as §1
To check for specificity of protein inhibition by the antisense p21^Waf1/Cip1 oligodeoxynucleotide (SEQ. ID NO.: 1), protein levels of p21^Waf1/Cip1 and p27^Kip1 after transfection with antisense p21^Waf1/Cip1 oligodeoxynucleotide (SEQ. ID NO.:1) were examined. In these experiments the ability of antisense oligodeoxynucleotides (SEQ. ID NO.:1) to inhibit maximally stimulated CKI expression (see FIG. 4) was assessed. The cells were stimulated with PMA for 4 hours at various times after overnight serum starvation.
At the times indicated after the overnight incubation (in hours), the medium was changed to quiescence medium and the cells were stimulated with PMA for 4 hours to show maximal p21^Waf1/Cip1 expression (FIG. 6a). The lysates were immunoblotted with (a) p21^Waf1/Cip1 or p27^Kip1 antibody or (b) α-actin antibody. […]

The next data set deals with cyclinD/cdk4. The data set can be described thus: Cyclin D1 immunoprecipitation / cdk4 immunoblot in A431 cells. Format: cell-based, human. The following applies: PDGF-BB 30 ng/ml. An excerpt: Cyclin/cdk interactions occur after growth factor stimulation and serve to integrate such responses with the CKIs and transmit them to the Rb/E2F systems, which leads to mitogenic signal transmission. The cyclin D1/cdk 4 interaction occurs early after growth factor stimulation (reviewed in (Arellano and Moreno, 1997 Int. J. Biochem. Cell Biol., 29, p. 559-573)), while the cyclinE/cdk2 interaction occurs late in G1 and is thought to have a role in triggering the actual onset of DNA replication after the cells have passed the restriction point (reviewed in (Sherr and Roberts, 1995: Genes Dev., 9, p. 1149-1163)). A431 cells were transfected with p21^Waf1/Cip1 antisense (SEQ. ID NO.:1) or sense (SEQ. ID NO.:2) oligodeoxynucleotide, allowed to grow overnight in serum-free media, and then stimulated for various times with PDGF-BB. The cells were subsequently immunoprecipitated with either cyclinD1 or cyclinE and immunoblotted with cdk4 or cdk2, respectively. A lysate sample, showing the mobility of the immunoprecipitated cdks, confirmed the identity of the cdks. A431 cells were transfected with antisense (SEQ. ID NO.:1) or sense p21^Waf1/Cip1 (SEQ. ID NO.:2) oligonucleotides. […]

Another data set deals with Met-1 cells. The conditions noted are these: Weiss et al., Cancer Lett. 2003; cited from earlier work.

As to “5′-ATC-CCC-AGC-CGG-TTC-TGA-CAT-3′ (antisense ATCCCCAGCCGGTTCTGACAT; listed as DNA, chemistry not fully specified) [antisense p21 ODN]”, in the data set with MCF7 cells, the nuclear morphology result is recorded as “nuclear morphological changes consistent with apoptosis”. The MAPK levels entry with MAPK is “lack of modulation”.

5′-GACATCACCAGGATCGGACAT-3′: the α-actin protein level result in the data set with α-actin (400 nM) was “no effect”. For the same substance, the “levels of α-actin” value with α-actin (identical conditions to p21 blot) was “not altered”. For the same substance, the “PDGF-stimulated DNA synthesis” value in the data set with A10 VSM cells (A10 VSM cells, 200 nM oligodeoxynucleotide lipofected, PDGF-BB 30 ng/ml 18 hours) is recorded as “Significant inhibition”. In addition, the “DNA synthesis relative to control oligodeoxynucleotide” value in the data set with A10 VSM cells (A10 VSM cells, 10% serum) is given as “markedly inhibited”. Moreover, in the data set on A10 VSM cells (A10 VSM cells, increasing oligodeoxynucleotide concentration up to 200 nM), the “PDGF-stimulated DNA synthesis, dose/response” value is reported as “inhibition of DNA synthesis with increasing concentration”. In addition, the “effects of irradiation on cell cycle arrest (DNA synthesis)” value in the data set on A10 VSM cells (VSM cells, 1 to 12 Gy, maximum potentiation at 8 Gy) is “potentiated at higher doses of radiation”. In the data set with A10 VSM cells (VSM cells, 12 Gy), the “potentiation of irradiation effect at 12 Gy” value is on record as “did not reach statistical significance”. For the same substance, the “potentiation of Adriamycin growth inhibition” value with A10 VSM cells (VSM cells, 1000 to 2000 ng/ml Adriamycin) is “significant potentiation”. Further, in the data set on A10 VSM cells (VSM cells, similar oligodeoxynucleotide concentrations (FIG. 9d)), the “cell growth (DNA synthesis) stimulated with PDGF-BB and serum” value is “inhibited”. Besides, the “DNA synthesis in non-irradiated cells” value in the data set with A10 VSM cells (confluent VSM cells in serum-containing medium) is “marked inhibition”. Further, the “p27^Kip1 protein” value in the data set on p27^Kip1 is given as “slight decrease”. Moreover, the cyclinD/cdk4 association entry in the data set on cyclinD/cdk4 was “no change”. In addition, the “growth of tumors in a mouse model of breast cancer” value in the data set with Met-1 cells is “attenuates growth of tumors”.
